System: patients after acute myocardial infarction
Assay: Life quality, Seattle Angina Questionnaire (SAQ), same clinical trial
Assay type: in vivo, human
Details: FAS
Description: 3508 patients who were in accordance with the diagnostic standards of AMI for 28 days to 2 years and differentiated as Qi deficiency and blood stagnation syndrome by TCM were studied. 0.5 g Chinese medicine composition prepared by the method of EXAMPLE 1 (Coded as QSYQ) was administrated half an hour after meal, 3 times per day.
There were 19 questions in the Seattle angina questionnaire (SAQ), including 5 parts: physical limitation (PL), anginal stability (AS), anginal frequency (AF), treatment satisfaction (TS) and disease perception (DP). After being given necessary explanation by doctors, the questions were answered independently by patients.
They included the overall survival time, angina pectoris score, TCM symptom score and life quality score, where angina pectoris score, TCM symptom score and life quality score were evaluated at randomization, in 1st, 3rd, 6th, 9th, 12th month after treatment and 18th month after follow-up.
All evaluation results of SAQ were described during the period of observation, and Wilcoxon rank sum test was used for inter-group comparison.
The evaluation results in the SAQ were depicted in different observations, and inter-group comparison was tested by Wilcoxon Rank-sum test.

## CC(=O)Oc1ccccc1C(=O)O [Control group, aspirine]
3 months after treatment
  SAQ 6th question, Mostly satisfied: % of patients: (51.83%)
  SAQ 6th question, Mostly satisfied: number of patients: 904
  SAQ 6th question, Partly satisfied: % of patients: (25.69%)
  SAQ 6th question, Partly satisfied: number of patients: 448
  SAQ 7th question, Dissatisfied: % of patients: (0.11%)
  SAQ 7th question, Dissatisfied: number of patients: 2
  SAQ 7th question, Highly satisfied: % of patients: (22.68%)
  SAQ 7th question, Highly satisfied: number of patients: 395
  SAQ 7th question, Mostly dissatisfied: % of patients: (1.95%)
  SAQ 7th question, Mostly dissatisfied: number of patients: 34
  SAQ 7th question, Mostly satisfied: % of patients: (54.08%)
  SAQ 7th question, Mostly satisfied: number of patients: 942
  SAQ 7th question, Partly satisfied: % of patients: (21.18%)
  SAQ 7th question, Partly satisfied: number of patients: 369
  SAQ Question 1-1 Mildly limited, number of patients: 26
  SAQ Question 1-1 Mildly limited, percent of patients: (1.49%)
  SAQ Question 1-1 Moderately limited, number of patients: 7
  SAQ Question 1-1 Moderately limited, percent of patients: (0.40%)
  SAQ Question 1-1 Not limited, number of patients: 1634
  SAQ Question 1-1 Not limited, percent of patients: (93.69%)
  SAQ Question 1-1 Other reasons, number of patients: 4
  SAQ Question 1-1 Other reasons, percent of patients: (0.23%)
  SAQ Question 1-1 Severely limited, number of patients: 1
  SAQ Question 1-1 Severely limited, percent of patients: (0.06%)
  SAQ Question 1-1 Slightly limited, number of patients: 72
  SAQ Question 1-1 Slightly limited, percent of patients: (4.13%)
  SAQ Question 1-2 Mildly limited, number of patients: 23
  SAQ Question 1-2 Mildly limited, percent of patients: (1.32%)
  SAQ Question 1-2 Moderately limited, number of patients: 10
  SAQ Question 1-2 Moderately limited, percent of patients: (0.57%)
  SAQ Question 1-2 Not limited, number of patients: 1603
  SAQ Question 1-2 Not limited, percent of patients: (91.92%)
  SAQ Question 1-2 Other reasons, number of patients: 7
  SAQ Question 1-2 Other reasons, percent of patients: (0.40%)
  SAQ Question 1-2 Severely limited, number of patients: 0
  SAQ Question 1-2 Severely limited, percent of patients: (0.00%)
  SAQ Question 1-2 Slightly limited, number of patients: 101
  SAQ Question 1-2 Slightly limited, percent of patients: (5.79%)
  SAQ Question 1-6: Mildly limited, patients (%): (18.23%)
  SAQ Question 1-6: Moderately limited, patients (%): (13.05%)
  SAQ Question 1-6: Not limited, patients (%): (31.45%)
  SAQ Question 1-6: Other reasons, patients (%): (0.92%)
  SAQ Question 1-6: Severely limited, patients (%): (4.14%)
  SAQ Question 1-6: Slightly limited, patients (%): (32.20%)
  SAQ Question 1-7: Mildly limited, patients (%): (23.77%)
  SAQ Question 1-7: Moserately limited, patients (%): (15.07%)
  SAQ Question 1-7: Not limited, patients (%): (13.91%)
  SAQ Question 1-7: Other reasons, patients (%): (3.01%)
  SAQ Question 1-7: Severely limited, patients (%): (15.88%)
  SAQ Question 1-7: Slightly limited, patients (%): (28.35%)
  SAQ Question 1-8: Mildly limited, patients (%): (25.55%)
  SAQ Question 1-8: Moderately limited, patients (%): (17.89%)
  SAQ Question 1-8: Not limited, patients (%): (10.69%)
  SAQ Question 1-8: Other reasons, patients (%): (3.02%)
  SAQ Question 1-8: Severely limieted, patients (%): (21.02%)
  SAQ Question 1-8: Slightly limited, patients (%): (21.84%)
6 months after treatment
  8th question: Dissatisfied, patients (%): (0.17%)
  8th question: Highly satisfied, patients (%): (20.30%)
  8th question: Mostly satisfied, patients (%): (56.59%)
  8th question: Partly satisfied, patients (%): (20.70%)
  9th question: Few, patients (%): (34.75%)
  9th question: Mild, patients (%): (34.63%)
  9th question: Severe, patients (%): (0.86%)
  9th question: Uneffective, patients (%): (18.12%)
  10th question: Dissatisfied, patients (%): (20.87%)
  10th question: Highly satisfied, patients (%): (4.64%)
  10th question: Mostly dissatisfied, patients (%): (21.56%)
  10th question: Mostly satisfied, patients (%): (26.61%)
  10th question: Partly satisfied, patients (%): (26.32%)
  11th question: Continuously worried, patients (%): (4.42%)
  11th question: No worried, patients (%): (4.93%)
  11th question: Occasionally worried, patients (%): (41.69%)
  11th question: Often worried, patients (%): (14.85%)
  11th question: Seldom worried, patients (%): (34.12%)
  SAQ 4th question, 1-2 times per week: % of patients: (17.55%)
  SAQ 4th question, 1-2 times per week: number of patients: 306
  SAQ 4th question, 1-3 times per day: % of patients: (4.70%)

Source: patent US9211310B2, “Use of a Chinese medicine composition in preparing medicaments for treating secondary prevention of myocardial infarction” (TASLY PHARMACEUTICAL GROUP CO., LTD, priority 2010, dated 2015)
